{"source": "PubChem BioAssay (NCI)", "experiment_in_all_cases": "NCI tumour cell line growth inhibition, 384-well format", "key": {"[1]": {"system": "CAKI-1 renal"}, "[2]": {"system": "CCRF-CEM leukemia"}, "[3]": {"system": "HOP-92 NSCLC"}, "[4]": {"system": "NCI-H322M lung"}, "[5]": {"system": "HL-60(TB) leukemia"}, "[6]": {"system": "RXF 393 renal"}, "[7]": {"system": "MDA-MB-468 breast"}, "[8]": {"system": "OVCAR-4 ovarian"}, "[9]": {"system": "BT-549 breast"}, "[10]": {"system": "KM12 colon"}, "[11]": {"system": "A549 NSCLC"}, "[12]": {"system": "SR leukemia"}, "[13]": {"system": "SF-295 CNS"}, "[14]": {"system": "UACC-257 melanoma"}, "[15]": {"system": "K-562 leukemia"}, "[16]": {"system": "A498 renal"}, "[17]": {"system": "UACC-62 melanoma"}, "[18]": {"system": "SF-539 CNS"}, "[19]": {"system": "EKVX NSCLC"}, "[20]": {"system": "COLO 205 colon"}, "[21]": {"system": "SW-620 colon"}, "[22]": {"system": "MDA-MB-435 melanoma"}, "[23]": {"system": "HOP-62 NSCLC"}, "[24]": {"system": "NCI-H522 lung"}, "[25]": {"system": "HS 578T breast"}, "[26]": {"system": "786-0 renal"}, "[27]": {"system": "LOX IMVI melanoma"}, "[28]": {"system": "SN12C renal"}, "[29]": {"system": "SK-OV-3 ovarian"}, "[30]": {"system": "HCC-2998 colon"}, "[31]": {"system": "SNB-75 CNS"}, "[32]": {"system": "PC-3 prostate"}, "[33]": {"system": "RPMI-8226 leukemia"}, "[34]": {"system": "SF-268 CNS"}, "[35]": {"system": "NCI/ADR-RES ovarian"}, "[36]": {"system": "MCF7 breast"}, "[37]": {"system": "NCI-H226 lung"}, "[38]": {"system": "DU-145 prostate"}, "[39]": {"system": "NCI-H460 NSCLC"}, "[40]": {"system": "TK-10 renal"}, "[41]": {"system": "IGROV1 ovarian"}, "[42]": {"system": "OVCAR-8 ovarian"}, "[43]": {"system": "ACHN renal"}, "[44]": {"system": "OVCAR-5 ovarian"}, "[45]": {"system": "U251 glioblastoma"}, "[46]": {"system": "SNB-19 CNS"}, "[47]": {"system": "MALME-3M melanoma"}}, "note": "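GI50 = concentration required for 50% inhibition of growth. At the TGI there is no net growth.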", "data": [{"compound": "C[C@@H](c1ccc2nccn2c1)n1nnc2ncc(-c3cnn(C)c3)nc21", "values": [{"measurement": "GI50", "setting": "[1]", "result": "> 51.5", "unit": "µM"}, {"measurement": "TGI", "setting": "[1]", "result": "> 100", "unit": "µM"}, {"measurement": "GI50", "setting": "[2]", "result": "> 71.6", "unit": "µM"}, {"measurement": "TGI", "setting": "[2]", "result": "> 100", "unit": "µM"}, {"measurement": "GI50", "setting": "[3]", "result": "> 100", "unit": "µM"}, {"measurement": "TGI", "setting": "[3]", "result": "> 100", "unit": "µM"}, {"measurement": "GI50", "setting": "[4]", "result": "> 100", "unit": "µM"}, {"measurement": "TGI", "setting": "[4]", "result": "> 100", "unit": "µM"}, {"measurement": "GI50", "setting": "[5]", "result": "> 92.2", "unit": "µM"}, {"measurement": "TGI", "setting": "[5]", "result": "> 100", "unit": "µM"}, {"measurement": "GI50", "setting": "[6]", "result": "> 75.4", "unit": "µM"}, {"measurement": "TGI", "setting": "[6]", "result": "> 100", "unit": "µM"}, {"measurement": "GI50", "setting": "[7]", "result": 22, "unit": "µM"}, {"measurement": "TGI", "setting": "[7]", "result": "> 100", "unit": "µM"}, {"measurement": "GI50", "setting": "[8]", "result": "> 94.4", "unit": "µM"}, {"measurement": "TGI", "setting": "[8]", "result": "> 100", "unit": "µM"}, {"measurement": "GI50", "setting": "[9]", "result": "> 100", "unit": "µM"}, {"measurement": "TGI", "setting": "[9]", "result": "> 100", "unit": "µM"}, {"measurement": "GI50", "setting": "[10]", "result": 35, "unit": "µM"}, {"measurement": "TGI", "setting": "[10]", "result": "> 100", "unit": "µM"}, {"measurement": "GI50", "setting": "[11]", "result": "> 100", "unit": "µM"}, {"measurement": "TGI", "setting": "[11]", "result": "> 100", "unit": "µM"}, {"measurement": "GI50", "setting": "[12]", "result": 43.3, "unit": "µM"}, {"measurement": "TGI", "setting": "[12]", "result": "> 100", "unit": "µM"}, {"measurement": "GI50", "setting": "[13]", "result": 25.2, "unit": "µM"}, {"measurement": "TGI", "setting": "[13]", "result": "> 100", "unit": "µM"}, {"measurement": "GI50", "setting": "[14]", "result": "> 100", "unit": "µM"}, {"measurement": "TGI", "setting": "[14]", "result": "> 100", "unit": "µM"}, {"measurement": "GI50", "setting": "[15]", "result": 44.8, "unit": "µM"}, {"measurement": "TGI", "setting": "[15]", "result": "> 100", "unit": "µM"}, {"measurement": "GI50", "setting": "[16]", "result": "> 100", "unit": "µM"}, {"measurement": "TGI", "setting": "[16]", "result": "> 100", "unit": "µM"}, {"measurement": "GI50", "setting": "[17]", "result": "> 100", "unit": "µM"}, {"measurement": "TGI", "setting": "[17]", "result": "> 100", "unit": "µM"}, {"measurement": "GI50", "setting": "[18]", "result": "> 100", "unit": "µM"}, {"measurement": "TGI", "setting": "[18]", "result": "> 100", "unit": "µM"}, {"measurement": "GI50", "setting": "[19]", "result": "> 100", "unit": "µM"}, {"measurement": "TGI", "setting": "[19]", "result": "> 100", "unit": "µM"}, {"measurement": "GI50", "setting": "[20]", "result": "> 100", "unit": "µM"}, {"measurement": "TGI", "setting": "[20]", "result": "> 100", "unit": "µM"}, {"measurement": "GI50", "setting": "[21]", "result": "> 100", "unit": "µM"}, {"measurement": "TGI", "setting": "[21]", "result": "> 100", "unit": "µM"}, {"measurement": "GI50", "setting": "[22]", "result": "> 100", "unit": "µM"}, {"measurement": "TGI", "setting": "[22]", "result": "> 100", "unit": "µM"}, {"measurement": "GI50", "setting": "[23]", "result": "> 92.4", "unit": "µM"}, {"measurement": "TGI", "setting": "[23]", "result": "> 100", "unit": "µM"}, {"measurement": "GI50", "setting": "[24]", "result": "> 75.5", "unit": "µM"}, {"measurement": "TGI", "setting": "[24]", "result": "> 100", "unit": "µM"}, {"measurement": "GI50", "setting": "[25]", "result": "> 100", "unit": "µM"}, {"measurement": "TGI", "setting": "[25]", "result": "> 100", "unit": "µM"}, {"measurement": "GI50", "setting": "[26]", "result": "> 100", "unit": "µM"}, {"measurement": "TGI", "setting": "[26]", "result": "> 100", "unit": "µM"}, {"measurement": "GI50", "setting": "[27]", "result": "> 65.9", "unit": "µM"}, {"measurement": "TGI", "setting": "[27]", "result": "> 100", "unit": "µM"}, {"measurement": "GI50", "setting": "[28]", "result": "> 63", "unit": "µM"}, {"measurement": "TGI", "setting": "[28]", "result": "> 100", "unit": "µM"}, {"measurement": "GI50", "setting": "[29]", "result": "> 100", "unit": "µM"}, {"measurement": "TGI", "setting": "[29]", "result": "> 100", "unit": "µM"}, {"measurement": "GI50", "setting": "[30]", "result": "> 100", "unit": "µM"}, {"measurement": "TGI", "setting": "[30]", "result": "> 100", "unit": "µM"}, {"measurement": "GI50", "setting": "[31]", "result": "> 76.8", "unit": "µM"}, {"measurement": "TGI", "setting": "[31]", "result": "> 100", "unit": "µM"}, {"measurement": "GI50", "setting": "[32]", "result": "> 100", "unit": "µM"}, {"measurement": "TGI", "setting": "[32]", "result": "> 100", "unit": "µM"}, {"measurement": "GI50", "setting": "[33]", "result": "> 68.8", "unit": "µM"}, {"measurement": "TGI", "setting": "[33]", "result": "> 100", "unit": "µM"}, {"measurement": "GI50", "setting": "[34]", "result": "> 100", "unit": "µM"}, {"measurement": "TGI", "setting": "[34]", "result": "> 100", "unit": "µM"}, {"measurement": "GI50", "setting": "[35]", "result": "> 100", "unit": "µM"}, {"measurement": "TGI", "setting": "[35]", "result": "> 100", "unit": "µM"}, {"measurement": "GI50", "setting": "[36]", "result": "> 100", "unit": "µM"}, {"measurement": "TGI", "setting": "[36]", "result": "> 100", "unit": "µM"}, {"measurement": "GI50", "setting": "[37]", "result": "> 100", "unit": "µM"}, {"measurement": "TGI", "setting": "[37]", "result": "> 100", "unit": "µM"}, {"measurement": "GI50", "setting": "[38]", "result": "> 100", "unit": "µM"}, {"measurement": "TGI", "setting": "[38]", "result": "> 100", "unit": "µM"}, {"measurement": "GI50", "setting": "[39]", "result": "> 100", "unit": "µM"}, {"measurement": "TGI", "setting": "[39]", "result": "> 100", "unit": "µM"}, {"measurement": "GI50", "setting": "[40]", "result": "> 100", "unit": "µM"}, {"measurement": "TGI", "setting": "[40]", "result": "> 100", "unit": "µM"}, {"measurement": "GI50", "setting": "[41]", "result": "> 100", "unit": "µM"}, {"measurement": "TGI", "setting": "[41]", "result": "> 100", "unit": "µM"}, {"measurement": "GI50", "setting": "[42]", "result": "> 100", "unit": "µM"}, {"measurement": "TGI", "setting": "[42]", "result": "> 100", "unit": "µM"}, {"measurement": "GI50", "setting": "[43]", "result": "> 100", "unit": "µM"}, {"measurement": "TGI", "setting": "[43]", "result": "> 100", "unit": "µM"}, {"measurement": "GI50", "setting": "[44]", "result": "> 100", "unit": "µM"}, {"measurement": "TGI", "setting": "[44]", "result": "> 100", "unit": "µM"}, {"measurement": "GI50", "setting": "[45]", "result": "> 100", "unit": "µM"}, {"measurement": "TGI", "setting": "[45]", "result": "> 100", "unit": "µM"}, {"measurement": "GI50", "setting": "[46]", "result": "> 100", "unit": "µM"}, {"measurement": "TGI", "setting": "[46]", "result": "> 100", "unit": "µM"}, {"measurement": "GI50", "setting": "[47]", "result": "> 100", "unit": "µM"}, {"measurement": "TGI", "setting": "[47]", "result": "> 100", "unit": "µM"}]}]}
